Measured values taken from patent US9714224B2, “Heterocyclic compounds and methods of their use” (Novartis AG, priority 2013, dated 2017).

Biological target: AT2 receptor (Homo sapiens (Human), UniProt P50052)
Test: AT2 receptor binding assay ([125I]-CGP42112A displacement, HEK293/AT2 receptor cell membranes)
Conditions: membranes of HEK293 cells transiently transfected with AT2 receptor; radioligand [125I]-CGP42112A; RT, 1.5 hrs
Description: Biological Example 1: AT2 Receptor Binding
• 1. Trypsin-EDTA (for preparation of 100 mL) • Trypsin 0.25 g • 2% EDTA 2 mL • PBS 98 mL • Dissolve trypsin in 2% EDTA and PBS completely; sterilize the solution by passing through a […] membrane filter; store at 4° C. • 2. DMEM medium (for preparation of IL) • The powder was dissolved into 950 mL of distilled water with gentle stirring until the solution becomes clear. • Add NaHCO3 1.176 g for DMEM medium. • Adjust pH of medium to 0.2-0.3 below final working pH using 1 M NaOH or 1 M HCl. Add slowly with stirring. • Dilute to 1 liter with ddH2O. • Sterilize the medium immediately by filtration. • Store at 4° C. • 3. TE buffer • 20 mM Tris-HCl, pH 7.4. • 5 mM EDTA • 4. Binding Assay Buffer • 50 mM HEPES, pH 7.4 • 5 mM MgCl2 • 1 mM CaCl2 • 0.2% BSA • 5. […] Cells were ready for transfection after overnight incubation (the confluence reaches around 80%). • 75 μL Lipofectamine™ 2000 diluted in 6.25 mL OptiMEM I Reduced Serum Medium, was mixed gently, and incubated at room temperature for 5 minutes, 50 μg expression plasmid DNA diluted in 6.25 mL OptiMEM I Reduced Serum Medium without serum was mixed gently. • After the 5 minute incubation, the diluted DNA was combined with the diluted Lipofectamine™ 2000 (total volume is 12.5 mL). […]

Chain of AT2 receptor (P50052 whole entry, species assumed): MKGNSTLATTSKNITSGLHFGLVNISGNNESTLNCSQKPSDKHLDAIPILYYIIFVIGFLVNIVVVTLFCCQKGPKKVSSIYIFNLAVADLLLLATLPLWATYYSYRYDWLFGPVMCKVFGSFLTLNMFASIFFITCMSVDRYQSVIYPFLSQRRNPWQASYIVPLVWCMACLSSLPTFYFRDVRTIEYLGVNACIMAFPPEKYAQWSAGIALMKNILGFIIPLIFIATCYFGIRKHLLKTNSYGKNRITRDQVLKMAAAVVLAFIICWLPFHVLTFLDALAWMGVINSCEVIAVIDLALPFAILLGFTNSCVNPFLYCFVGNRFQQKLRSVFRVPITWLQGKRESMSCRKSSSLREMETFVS

COc1ccc2c(c1O)C[C@@H](C(=O)NS(=O)(=O)N(C)C)N(C(=O)C(c1ccccc1)c1ccccc1)C2 [Compound 41]
IC50: 1.79 µM

COc1ccc2c(c1OCc1ccccc1)CC(C(=O)O[C@@H]1O[C@H](C(=O)O)[C@@H](O)[C@H](O)[C@H]1O)N(C(=O)C(c1ccccc1)c1ccccc1)C2 (some centres unmarked) [Compound 33]
IC50: 0.431 µM
